# Test results reported in PMC7143535, “Synthesis, Pharmacological and Structural Characterization of Novel Conopressins from Conus miliaris” (Marine Drugs, 2020).
# Residues, ends and D or L forms follow the SMILES beside them.
# Legend:
# [1] = test system: zebrafish vasopressin2 receptor (ZF V2R); assay type: cell-based, zebrafish (Danio rerio); settings: for EC50: read-out: Mean EC50 ZF V2R
# [2] = biological target: zebrafish vasopressin1-a1 receptor (ZF V1a1R); assay type: cell-based, zebrafish (Danio rerio)
# [3] = biological target: T1, human vasopressin-1b receptor (hV1bR) (Homo sapiens, UniProt P47901); experiment: cell-based; assay type: cell-based
# T1 construct: host or cells: COS-1
# T1 sequence (P47901 1-424): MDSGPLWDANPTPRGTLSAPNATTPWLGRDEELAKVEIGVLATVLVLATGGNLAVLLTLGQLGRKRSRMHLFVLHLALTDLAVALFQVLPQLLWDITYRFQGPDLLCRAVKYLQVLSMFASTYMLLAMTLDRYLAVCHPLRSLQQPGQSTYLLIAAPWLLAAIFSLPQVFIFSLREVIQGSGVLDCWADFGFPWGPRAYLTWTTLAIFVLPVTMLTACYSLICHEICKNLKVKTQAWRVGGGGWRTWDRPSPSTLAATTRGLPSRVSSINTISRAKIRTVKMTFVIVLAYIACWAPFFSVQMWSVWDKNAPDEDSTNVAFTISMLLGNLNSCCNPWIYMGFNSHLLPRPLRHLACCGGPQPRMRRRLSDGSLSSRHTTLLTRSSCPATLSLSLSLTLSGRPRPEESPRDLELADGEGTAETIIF
# [4] = biological target: T2, zebrafish oxytocin/isotocin receptor (ZF oxy/isoR) (Danio rerio, UniProt E4W699); experiment: cell-based; assay type: cell-based
# T2 construct: host or cells: COS-1
# T2 sequence (E4W699 1-388): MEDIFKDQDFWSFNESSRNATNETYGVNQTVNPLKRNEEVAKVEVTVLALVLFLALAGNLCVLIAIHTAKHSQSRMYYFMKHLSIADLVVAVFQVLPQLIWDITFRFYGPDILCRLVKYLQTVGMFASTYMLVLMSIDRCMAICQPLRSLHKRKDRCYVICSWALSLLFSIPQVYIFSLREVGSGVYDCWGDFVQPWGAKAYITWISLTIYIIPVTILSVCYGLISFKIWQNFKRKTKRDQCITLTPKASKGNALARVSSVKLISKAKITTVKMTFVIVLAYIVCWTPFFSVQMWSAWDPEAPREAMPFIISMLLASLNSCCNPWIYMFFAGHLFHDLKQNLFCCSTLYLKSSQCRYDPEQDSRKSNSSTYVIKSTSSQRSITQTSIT
# [5] = biological target: T3, human vasopressin2 receptor (hV2R) (Homo sapiens, UniProt P30518); experiment: cell-based
# T3 construct: host or cells: COS-1
# T3 sequence (P30518 whole entry): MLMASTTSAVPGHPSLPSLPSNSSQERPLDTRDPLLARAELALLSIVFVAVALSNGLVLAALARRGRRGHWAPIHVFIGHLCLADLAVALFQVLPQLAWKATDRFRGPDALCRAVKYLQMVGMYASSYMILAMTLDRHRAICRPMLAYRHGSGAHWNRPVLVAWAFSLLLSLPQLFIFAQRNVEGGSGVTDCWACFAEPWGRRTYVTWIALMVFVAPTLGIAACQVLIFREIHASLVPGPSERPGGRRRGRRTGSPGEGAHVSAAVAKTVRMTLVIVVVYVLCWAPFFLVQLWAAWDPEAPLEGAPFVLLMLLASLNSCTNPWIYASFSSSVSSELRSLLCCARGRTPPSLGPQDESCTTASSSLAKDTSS
# [6] = test system: zebrafish vasopressin1-a2 receptor (ZF V1a2R); assay type: cell-based, zebrafish (Danio rerio)
# [7] = biological target: T4, human vasopressin-1a receptor (hV1aR) (Homo sapiens, UniProt P37288); experiment: cell-based
# T4 construct: host or cells: COS-1
# T4 sequence (P37288 whole entry): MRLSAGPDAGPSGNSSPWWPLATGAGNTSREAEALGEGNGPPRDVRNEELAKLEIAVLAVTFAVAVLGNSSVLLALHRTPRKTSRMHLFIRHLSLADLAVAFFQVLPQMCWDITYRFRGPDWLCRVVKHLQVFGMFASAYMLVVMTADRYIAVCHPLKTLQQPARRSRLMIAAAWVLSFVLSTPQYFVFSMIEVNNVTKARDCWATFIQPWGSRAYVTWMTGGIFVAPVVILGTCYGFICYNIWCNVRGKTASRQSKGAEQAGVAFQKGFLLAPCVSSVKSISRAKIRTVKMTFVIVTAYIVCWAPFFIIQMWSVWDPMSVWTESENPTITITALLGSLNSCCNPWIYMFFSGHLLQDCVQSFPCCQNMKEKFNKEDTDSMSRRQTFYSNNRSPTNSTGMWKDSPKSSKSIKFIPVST
# [8] = biological target: T5, human oxytocin receptor (hOTR) (Homo sapiens, UniProt P30559); experiment: cell-based; assay type: cell-based
# T5 construct: host or cells: COS-1
# T5 sequence (P30559 1-389): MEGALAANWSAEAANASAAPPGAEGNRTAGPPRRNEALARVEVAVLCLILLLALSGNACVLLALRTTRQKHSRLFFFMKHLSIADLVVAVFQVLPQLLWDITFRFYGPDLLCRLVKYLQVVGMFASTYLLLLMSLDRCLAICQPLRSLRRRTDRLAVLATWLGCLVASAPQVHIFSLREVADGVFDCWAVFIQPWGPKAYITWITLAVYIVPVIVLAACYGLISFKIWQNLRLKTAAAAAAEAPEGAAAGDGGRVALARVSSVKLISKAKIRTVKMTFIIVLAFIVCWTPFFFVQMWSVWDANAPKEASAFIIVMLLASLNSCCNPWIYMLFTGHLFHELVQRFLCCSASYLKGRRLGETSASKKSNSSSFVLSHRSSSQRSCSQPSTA
SMILES,Selectivity ZF V2R [1],EC50 [2] [µM],Selectivity ZF V1a1R [2],EC50 [3] [µM],Selectivity hV1bR [3],Selectivity ZF oxy [4],response of control at ZF oxy/isoR (partial agonist) [4] [%],EC50 [5] [µM],Selectivity hV2R [5],Selectivity ZF V1a2R [6],response of control at ZF V1a2R (partial agonist) [6] [%],EC50 [7] [µM],Selectivity hV1aR [7],response of control at hOTR (partial agonist) [8] [%],EC50 [1] [µM],response of control at hV1b (weak and partial agonist) [3] [%],EC50 [4] [µM],EC50 [6] [µM],EC50 [8] [µM]
"CC[C@H](C)[C@@H]1NC(=O)[C@H](Cc2ccccc2)NC(=O)[C@@H](N)CSSC[C@@H](C(=O)N2CCC[C@H]2C(=O)N[C@@H](CCCCN)C(=O)NCC(N)=O)NC(=O)[C@H](CC(N)=O)NC(=O)[C@H](CCCNC(=N)N)NC1=O [Con-G, conopressin-G] (HELM PEPTIDE1{C.F.I.R.N.C.P.K.G.[am]}$PEPTIDE1,PEPTIDE1,1:R3-6:R3$$$V2.0)",ZF V1a1R (x42.9) > ZF V1a2R (x10.3) > hV1bR (x8.8) > ZF V2R (x7.5) > hV1aR (x3.7) > hV2R (x1.5) > ZF oxy (x1.3) > hOTR,0.01,ZF V1a1R (x42.9) > ZF V1a2R (x10.3) > hV1bR (x8.8) > ZF V2R (x7.5) > hV1aR (x3.7) > hV2R (x1.5) > ZF oxy (x1.3) > hOTR,0.052,ZF V1a1R (x42.9) > ZF V1a2R (x10.3) > hV1bR (x8.8) > ZF V2R (x7.5) > hV1aR (x3.7) > hV2R (x1.5) > ZF oxy (x1.3) > hOTR,ZF V1a1R (x42.9) > ZF V1a2R (x10.3) > hV1bR (x8.8) > ZF V2R (x7.5) > hV1aR (x3.7) > hV2R (x1.5) > ZF oxy (x1.3) > hOTR,62,0.3,ZF V1a1R (x42.9) > ZF V1a2R (x10.3) > hV1bR (x8.8) > ZF V2R (x7.5) > hV1aR (x3.7) > hV2R (x1.5) > ZF oxy (x1.3) > hOTR,ZF V1a1R (x42.9) > ZF V1a2R (x10.3) > hV1bR (x8.8) > ZF V2R (x7.5) > hV1aR (x3.7) > hV2R (x1.5) > ZF oxy (x1.3) > hOTR,69,0.123,ZF V1a1R (x42.9) > ZF V1a2R (x10.3) > hV1bR (x8.8) > ZF V2R (x7.5) > hV1aR (x3.7) > hV2R (x1.5) > ZF oxy (x1.3) > hOTR,28,–,–,–,–,–
"NC(=O)C[C@@H]1NC(=O)CNC(=O)[C@@H]2CCCN2C(=O)[C@H](Cc2ccccc2)NC(=O)[C@@H](N)CSSC[C@@H](C(=O)N2CCC[C@H]2C(=O)N[C@@H](CC(=O)O)C(=O)N[C@@H](CO)C(N)=O)NC1=O [Con-M1am, conopressin-M1] (HELM PEPTIDE1{C.F.P.G.N.C.P.D.S.[am]}$PEPTIDE1,PEPTIDE1,1:R3-6:R3$$$V2.0)",–,–,–,38.2,–,–,–,> 100,–,–,–,> 100,–,–,> 100,26,> 100,> 100,> 100
"CC(C)C[C@@H]1NC(=O)[C@H](Cc2ccccc2)NC(=O)[C@@H](N)CSSC[C@@H](C(=O)N2CCC[C@H]2C(=O)N[C@@H](CC(=O)O)C(=O)N[C@@H](CO)C(N)=O)NC(=O)[C@H](CC(N)=O)NC(=O)CNC1=O [Con-M2am, conopressin-M2] (HELM PEPTIDE1{C.F.L.G.N.C.P.D.S.[am]}$PEPTIDE1,PEPTIDE1,1:R3-6:R3$$$V2.0)",–,> 100,–,> 100,–,–,–,> 100,–,–,–,> 100,–,–,1.72,–,> 100,> 100,> 100
